Laboratory results: ChEMBL document CHEMBL1201862, “PubChem BioAssay data set” (2004)
Calls of active or inactive are those of the source.

Assays:
[1] = system: T-cell; test: loss of vesicle association with mouse CD8+ T cells – mouse 2C CD8+ T cells, flow cytometry, dose response (AID 485284); type: functional
[2] = biological target: T1, SUMO-activating enzyme (Homo sapiens, UniProt Q9UBT2); test: blockers of SAE1/SAE2–UBC9 SUMO transfer – biochemical, HTRF, uHTS, primary screen (AID 2006); type: protein-complex assay
[3] = biological target: Genome polyprotein (Hepatitis C virus, UniProt Q2Q167); test: disruption of hepatitis C core self-association – biochemical, TR-FRET, dose response (AID 2159); design: species or system Hepacivirus hominis;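 further: blocks dimerization of HCV core protein measured by TR-FRET between tagged core106 pairs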
[4] = biological target: Paired box protein Pax-8 (Homo sapiens, UniProt Q06710); test: PAX8 transcriptional activity inhibition in RMG-I – RMG-I cells, luciferase, cherry-pick, dose response (AID 687027); type: functional, cell-based;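 further: luciferase reporter driven by Pax8 target thyroperoxidase promoter measured by SteadyGlo luminescence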
[5] = biological target: T1, SUMO-activating enzyme; test: blockers of UBC9-mediated SUMO conjugation – biochemical, AlphaScreen, SUMOylation inhibitor project, confirmation (AID 2018); type: functional
[6] = biological target: T2, Voltage-gated N-type calcium channel alpha-1B subunit/Amyloid beta A4 precursor protein-binding family A member 1 (Homo sapiens, UniProt Q00975+Q02410); type: protein assay
[7] = biological target: T2, Voltage-gated N-type calcium channel alpha-1B subunit/Amyloid beta A4 precursor protein-binding family A member 1; type: protein assay; remark: listed apart in the source
[8] = biological target: T3, G-protein coupled receptor 35 (Homo sapiens, UniProt Q9HC97); test: inhibition of zaprinast-stimulated GPR35 beta-arrestin translocation – imaging, U2OS, beta-arrestin-GFP, zaprinast agonist, primary screen (AID 2058); type: functional;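 further: antagonist potency meaning inhibition of agonist-induced arrestin redistribution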
[9] = biological target: T4, Microphthalmia-associated transcription factor (Homo sapiens, UniProt O75030); test: reducers of TRPM1 reporter luminescence, concentration series – cell-based, SK-MEL-5, cherry-picked, set 3, MITF inhibitor project, dose response (AID 493073); type: functional;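 further: SK-MEL-5 melanoma cells with luciferase driven by the MITF target TRPM1 promoter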
T4 sequence (O75030 whole entry): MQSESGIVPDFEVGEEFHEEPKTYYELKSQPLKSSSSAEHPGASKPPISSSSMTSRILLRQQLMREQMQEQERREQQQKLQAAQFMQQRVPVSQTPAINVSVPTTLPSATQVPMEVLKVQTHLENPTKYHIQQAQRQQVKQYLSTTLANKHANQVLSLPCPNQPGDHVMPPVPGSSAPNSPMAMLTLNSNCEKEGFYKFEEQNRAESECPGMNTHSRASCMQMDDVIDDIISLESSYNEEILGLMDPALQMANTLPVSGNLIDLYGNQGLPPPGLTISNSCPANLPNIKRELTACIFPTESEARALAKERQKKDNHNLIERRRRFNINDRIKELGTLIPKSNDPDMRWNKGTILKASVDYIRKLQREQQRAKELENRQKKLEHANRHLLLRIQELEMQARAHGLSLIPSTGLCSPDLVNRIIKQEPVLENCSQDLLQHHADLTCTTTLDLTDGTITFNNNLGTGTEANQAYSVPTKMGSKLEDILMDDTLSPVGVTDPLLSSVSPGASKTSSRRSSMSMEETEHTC

[10] = system: A-375; test: proliferation inhibition in MITF-low A375 cells – cell-based, cherry-pick samples, set 2, counter-screen for MITF modulator project, dose response (AID 540335); type: functional; settings: Homo sapiens
[11] = biological target: E3 ubiquitin-protein ligase Mdm2/Protein Mdm4 (Homo sapiens, UniProt O15151+Q00987); test: disruption of Mdm2/MdmX protein binding – luminescence detection, dose response (AID 504593); type: functional
[12] = biological target: Coagulation factor XII (Homo sapiens, UniProt P00748); type: functional;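 further: activated factor XIIa alpha cleaving a fluorogenic AMC peptide substrate; inhibitor potency from loss of enzyme activity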
[13] = biological target: Prothrombin (Homo sapiens, UniProt P00734); test: Thrombin 1536 HTS Dose Response Confirmation. [Related pubchem assays: 1046 (Thrombin 1536 HTS; hits were confirmed in this assay)]; type: functional
[14] = biological target: Troponin, cardiac muscle (Homo sapiens, UniProt P19429+P45379+P63316); test: Fluorescence-based biochemical high throughput dose response assay for activators of the calcium sensitivity of cardiac Regulated Thin Filaments (RTF). [Related pubchem assays (depositor defined):AID493008, AID493018, AID504382, AID504383]; type: protein-complex assay
[15] = biological target: Alkaline phosphatase, placental type (Homo sapiens, UniProt P05187); test: human placental alkaline phosphatase inhibition – biochemical, luminescence, confirmation (AID 1512); type: functional
[16] = biological target: T5, Alkaline phosphatase, tissue-nonspecific isozyme (Homo sapiens, UniProt P05186); test: potency against alkaline phosphatase TNAP – biochemical, luminescent, dose response, SAR follow-up (AID 1056)
T5 sequence (P05186 whole entry): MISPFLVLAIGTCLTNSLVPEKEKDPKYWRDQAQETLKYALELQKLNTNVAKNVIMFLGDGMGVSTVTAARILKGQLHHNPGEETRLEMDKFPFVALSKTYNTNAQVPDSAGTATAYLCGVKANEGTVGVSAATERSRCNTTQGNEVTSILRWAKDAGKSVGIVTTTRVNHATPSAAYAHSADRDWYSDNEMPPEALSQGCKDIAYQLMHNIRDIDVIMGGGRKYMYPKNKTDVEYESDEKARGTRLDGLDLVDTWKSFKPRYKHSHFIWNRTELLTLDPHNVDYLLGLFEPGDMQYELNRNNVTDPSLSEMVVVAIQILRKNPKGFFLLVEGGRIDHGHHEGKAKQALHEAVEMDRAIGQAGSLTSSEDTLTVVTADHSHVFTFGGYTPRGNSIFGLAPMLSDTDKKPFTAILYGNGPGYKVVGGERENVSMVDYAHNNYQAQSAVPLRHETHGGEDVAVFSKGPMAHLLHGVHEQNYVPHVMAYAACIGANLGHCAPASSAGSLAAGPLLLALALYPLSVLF

[17] = biological target: G-protein coupled receptor 55 (Homo sapiens, UniProt Q9Y2T6); test: SAR analysis of selective Agonists of GPR55 using an Image-Based Assay - Set 2. [Related pubchem assays (depositor defined):AID1961, AID1965]; type: functional
[18] = biological target: T3, G-protein coupled receptor 35; test: SAR analysis of Agonists of the GPR35 Receptor using an Image-Based Assay - Set 3. [Related pubchem assays (depositor defined):AID1961, AID1965]; type: functional
[19] = biological target: T6, Cannabinoid receptor 2 (Homo sapiens, UniProt P34972); test: SAR analysis of agonists of the Cannabinoid Receptor 2 using an Image-Based Assay - Set 2. [Related pubchem assays (depositor defined):AID1961, AID1965]; type: functional
[20] = biological target: T7, Cannabinoid receptor 1 (Homo sapiens, UniProt P21554); test: SAR analysis of agonists of the Cannabinoid Receptor 1 using an Image-Based Assay - Set 3. [Related pubchem assays (depositor defined):AID1961, AID1965]; type: functional
[21] = biological target: T6, Cannabinoid receptor 2; test: SAR analysis of antagonists of the Cannabinoid Receptor 2 using an Image-Based Assay - Set 2. [Related pubchem assays (depositor defined):AID1961, AID1965]; type: functional
[22] = biological target: T3, G-protein coupled receptor 35; test: SAR analysis of Antagonists of the GPR35 Receptor using an Image-Based Assay - Set 4. [Related pubchem assays (depositor defined):[…]]; type: functional
[23] = biological target: Major prion protein (Homo sapiens, UniProt P04156); type: functional, cell-based
[24] = biological target: T7, Cannabinoid receptor 1; test: SAR analysis of antagonists of the Cannabinoid Receptor 1 using an Image-Based Assay - Set 3. [Related pubchem assays (depositor defined):AID1961, AID1965]; type: functional
[25] = cells
[26] = biological target: T8, Sphingosine 1-phosphate receptor 4 (Homo sapiens, UniProt O95977); test: Late-stage fluorescence dose response cell-based assay to identify agonists of the Sphingosine 1-Phosphate Receptor 4 (S1P4): purchased compounds EC50. [Related pubchem assays (depositor defined):AID1509, AID1523, AID1563, AID1686, AID1701, AID1801]; type: functional
T8 sequence (O95977 whole entry): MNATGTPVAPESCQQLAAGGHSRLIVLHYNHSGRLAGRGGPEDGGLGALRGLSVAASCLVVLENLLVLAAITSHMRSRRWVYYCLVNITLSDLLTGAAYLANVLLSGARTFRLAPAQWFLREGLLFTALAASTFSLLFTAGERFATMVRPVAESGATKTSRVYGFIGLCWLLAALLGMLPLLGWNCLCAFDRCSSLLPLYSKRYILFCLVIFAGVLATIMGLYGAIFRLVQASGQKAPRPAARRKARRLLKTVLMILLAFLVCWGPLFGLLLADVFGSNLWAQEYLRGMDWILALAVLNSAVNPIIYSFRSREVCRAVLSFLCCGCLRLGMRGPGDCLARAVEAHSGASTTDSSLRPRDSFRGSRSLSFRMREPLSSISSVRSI

[27] = biological target: T9, Kappa-type opioid receptor (Homo sapiens, UniProt P41145); test: SAR analysis of Antagonists of the Kappa Opioid Receptor (KOR) using an Image-Based Assay - Set 3. [Related pubchem assays (depositor defined):AID1777, AID1785]; type: functional
[28] = biological target: Mu-type opioid receptor (Homo sapiens, UniProt P35372); test: SAR Analysis of Antagonists of the MOR Receptor using an Image-Based Assay - Set 3. [Related pubchem assays (depositor defined):AID1777, AID1785, AID1786, AID1966, AID2133, AID2136, AID2284, AID2285, AID2420]; type: functional
[29] = biological target: Delta-type opioid receptor (Homo sapiens, UniProt P41143); test: SAR Analysis of Antagonists of the DOR Receptor using an Image-Based Assay - Set 3. [Related pubchem assays (depositor defined):AID1777, AID1785]; type: functional;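 further: U2OS cells expressing DOR1 and beta-arrestin GFP stimulated with 100 nM SNC80; imaging of GFP-tagged beta-arrestin moving into spots after receptor activation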
[30] = biological target: T9, Kappa-type opioid receptor; test: SAR analysis of small molecule antagonists of the kappa opioid receptor via a luminescent beta-arrestin assay - Set 3. [Related pubchem assays (depositor defined):AID1777, AID1778, AID1785, AID1786, AID1966, AID2133, AID2136, AID2285, AID2495]; type: functional

Structure (SMILES): COc1ccc(C2=CC(=O)C[C@H](c3ccc4c(c3)OCO4)C2)cn1
- EC50 [1]: 19.9 µM (active)

Structure (SMILES): COc1ccc(-c2nc3c(c(SCC(=O)Nc4cccc(O)c4)n2)Cc2c(CO)cnc(C)c2O3)cc1
- IC50 [2]: 32.8 µM (active)
- IC50 [3]: > 49.8 µM (not active)
- AC50 [4]: 67.6 µM (active)
- IC50 [5]: 9.01 µM (active)
- IC50 [6]: 28.1 µM (active)
- IC50 [7]: > 50 µM (inactive)

Structure (SMILES): CCN(CC)S(=O)(=O)c1ccc(NC(=O)c2cccnc2Cl)c(NC(=O)c2cccnc2Cl)c1
- IC50 [8]: 8.8 µM (active)
- AC50 [9]: 7.02 µM (active)
- AC50 [10]: 23.2 µM (active)
- IC50 [11]: 4.18 µM (active)

Structure (SMILES): COCCNC(=S)NN=C1CCCCCC1
- IC50 [12]: > 50 µM (inactive)
- IC50 [13]: > 50 µM (not active)

Structure (SMILES): CCOC(=O)N1CCN(C(S)=Nc2ccccc2C)CC1
- EC50 [14]: > 71.4 µM (inactive)

Structure (SMILES): Cc1ccc(-n2nnnc2SCC(=O)c2ccc(O)c(O)c2)cc1
- IC50 [15]: 1.58 µM (active)
- IC50 [16]: 8.58 µM (active)

Structure (SMILES): O=C(Nc1cc(S(=O)(=O)N2CCOCC2)ccc1N1CCCC1)c1cc2c(s1)CCCC2
- EC50 [17]: 1.57 µM (active)
- EC50 [18]: > 32 µM (inactive)
- EC50 [19]: > 32 µM (inactive)
- EC50 [20]: > 32 µM (inactive)
- IC50 [21]: > 32 µM (inactive)
- IC50 [22]: > 32 µM (inactive)
- IC50 [23]: 5.47 µM (active)
- IC50 [24]: > 32 µM (inactive)
- IC50 [25]: > 138 µM (inactive)

Structure (SMILES): Cc1nn(Cc2ccccc2)c(Cl)c1C(=O)OC(C)C(=O)NCc1cccs1 (stereo not given)
- EC50 [26]: > 50 µM (inactive)

Structure (SMILES): O=C(Cn1c(=O)c2cccn2c2cccnc21)NCCCN1CCCCC1
- IC50 [27]: > 32 µM (inactive)
- IC50 [28]: > 32 µM (inactive)
- IC50 [29]: > 32 µM (inactive)
- IC50 [30]: > 20 µM (inactive)
